Molecules are shown by their SMILES.

In one test the test system is p-Cdc-2. The test is described as follows: Western blot of p-Cdc-2 in QGP-1 cells. Conditions: QGP-1, 50-100 μM, 24 h. The class given is cell-based, human. As to the method: (§1) After drug treatment, the cells are lysed and centrifuged to collect the protein extract After determination of protein content, the samples protein are denatured at 100° C. for 5 min Proteins are separated by 10-12% SDS-PAGE and transferred to PVDF membranes (Bio-Rad, CA). After blocking with 5% nonfat milk for 1 h at room temperature, the membranes are incubated overnight at 4° C. with primary antibodies (mouse anti-cyclin BE 1:500, Abcam; goat anti-p-Cdc2:1:500, Santa Cruz; mouse anti-p21: 1:500, BD Bioscience). After washing three times in TBST, the membranes where incubated with the appropriate secondary antibodies (1:2000, Invitrogen) for 1 h at room temperature. The immunoreaction is detected using ECL Western blotting kit (ECL, Amersham, UK). Bands are visualized on Biomax X-ray film, and optical density of each band is semi-quantified by software (Image J.NIH). In order to adjust for any variations in loading, all detected protein bands are normalized to β-actin levels.

In the next test the test system is TPH. The test is described as follows: Colonic TPH expression by Western blot. The test is classed as in vivo, rat. As to the method: The colon tissues are homogenized and sonicated on ice for protein extraction. After determination of protein content, the samples protein are denatured at 100° C. for 5 min. Proteins are separated by 10% SDS-PAGE and transferred to PVDF membranes (Bio-Rad, CA). After blocking with 5% nonfat milk, the membranes are incubated overnight at 4° C. with rabbit anti-TPH antibody (1:1000, Santa Cruz, Calif.), then incubated with the appropriate secondary antibodies for 1 h at room temperature. The immunoreaction is detected using ECL Western blotting kit (ECL, Amersham, UK). Bands are visualized on Biomax X-ray film, and optical density of each band is semi-quantified by computer software (Image J.NIH). All detected protein bands are normalized to β-actin levels.

The subject of the next test is PI-IBS rats. The test is described as follows: Abdominal withdrawal reflex (AWR) test: pain threshold pressure to colorectal distension. Conditions: for Pain threshold pressure, after treatment: 2 weeks. The class given is in vivo, rat. The protocol:
Sprague-Dawley male rats (Laboratory Animal Services Centre, The Chinese University of Hong Kong) aged 6 weeks with body weight around 220 g are used to develop PI-IBS model. Briefly, rats are fasted for 24 h, and deeply anesthetized with chloral hydrate (350 mg.kg^−1, i.p.). After induction of colitis by 2,4,6-trinitrobenzenesulfonic acid solution (TNBS, 5 mg/0.8 ml/rat, in 50% ethanol, 8 cm from anus) administration, the rats are allowed to recover for at least 4 weeks before use. The control rats are similarly administered with 0.8 ml saline instead of TNBS. Only the rats that have completely recovered from the initial inflammation and acquired visceral hypersensitivity are used as the PI-IBS rats.
6 groups of 12 rats are tested. Normal rats (Group 1) are treated with water. PI-IBS rats are randomly divided into 5 groups and orally treated with water (Group 2), Doxantrazole (mast cell stabilizer, 30 mg/kg/d, Group 3), and Quercetin (Group 4-6) at the dose of 5, 10, and 20 mg/kg/d, respectively. After 2 weeks daily drug administration, 5 rats in each group are used to measure pain threshold pressure by abdominal withdrawal reflex (AWR) test, and the remaining […] is used for electromyography (EMG) recording.
AWR test is performed as previously described in Al-Chaer E D, Kawasaki M, Pasricha P J. A new model of chronic visceral hypersensitivity in adult rats induced by colon irritation during postnatal development. Gastroenterology. 2000 November; 119(5):1276-85. Briefly, rats are lightly anesthetized with ether; a latex balloon is inserted into the descending colon. Rats are then allowed to recover for about 1 h. The tube of the balloon is connected via a Y-connector to a sphygmomanometer and colorectal distension is applied in increments of 5 mmHg until a visible contraction of the abdominal wall is observed by an investigator blinded to the treatment. The pain threshold pressure is defined as the intensity of colorectal distension (CRD) that elicited an observable AWR, i.e. a sudden and persistent abdominal muscle contraction with abdomen lift off the platform. The pain threshold pressure of all groups is recorded and repeated five times with intervals of at least 5 minutes for recovery. EMG recording are conducted as previously described in Tammpere A, Brusberg M, Axenborg J, Hirsch I, Larsson H, Lindstrom E. Evaluation of pseudo-affective responses to noxious colorectal distension in rats by manometric recordings. Pain. 2005 August; 116(3):220-6 and Li Z, Zhang X J, Xu H X, Sung J J, Bian Z X. Intracolonical administration of protease-activated receptor-2 agonists produced visceral hyperalgesia by up-regulating serotonin in the colon of rats. Eur J. Pharmacol. 2009 Mar. 15; 606(1-3):199-204. Firstly, a surgical operation is made to implant the electrodes into the left external abdominal oblique muscles 7 days before EMG recording. After the last drug administration, a flexible latex balloon is inserted into the rat descending colon, and the rats are allowed to accommodate for 1 h. CRD is initiated, and the EMG signal is amplified and filtered by Power Lab System. Graded colorectal distension (20, 40, 60, and 80 mmHg; 20 s duration; 2 min inter-stimulus interval) is carried out for total three cycles to each rat. The changes of area under the curve (AUC) are calculated using that during 20 s distension period over the 20 s baseline.

Another test relates to cyclin B1. Put plainly: Western blot of cyclin B1 in QGP-1 cells. The class given is cell-based, human. Conditions: QGP-1, 50-100 μM, 24 h. As to the method:
as §1
In general terms: A western blot detects proteins with antibodies after separation by electrophoresis.

Another test deals with QGP-1 cells. The test is described as follows: Apoptosis by DAPI staining, fluorescence microscopy. The class given is cell-based, human. Conditions: QGP-1, 25~100 μM, 24 h. As to the method: Cells are seeded on coverslips in 24-well plate at the density of 100,000 cells per well and cultured overnight. After exposure to DMSO (control) or different concentration of Quercetin for 24 h, cells are washed three times and fixed with 4% paraformaldehyde for 20 min at room temperature. After washing in PBS, cells are permeabilized in 0.2% tritonX-100 for 10 min and stained with DAPI (20 μg/ml) for 10 min at room temperature in darkness. Slides are examined with a laser scanning microscope (Olympus Fluoview FV1000) 40× magnification. Three hundred cells are counted per slide randomly as previously reported in Ramage L, Jones A C, Whelan C J. Induction of apoptosis with tobacco smoke and related products in A549 lung epithelial cells in vitro. J Inflamm (Lond). 2006; 3:3. Apoptosis cells condense or fragment nuclear chromatin with or without apoptotic bodies, while normal cells have typical morphology with smooth nuclear and membrane.

Another test concerns p21. The test is described as follows: Western blot of p21 in QGP-1 cells. The test is classed as cell-based, human. Conditions: QGP-1, 50-100 nM (so in the source), 24 h. The protocol:
as §1

With `O=c1c(O)c(-c2ccc(O)c(O)c2)oc2cc(O)cc(O)c12` [Quercetin, 2-(3,4-dihydroxyphenyl)-3,5,7-trihydroxy-4H-chromen-4-one], the “Protein level of p-Cdc-2” value in the test with p-Cdc-2 is recorded as “significantly decrease”. In addition, the TPH/actin ratio in the test on TPH (PI-IBS rats, colon, 10 mg/kg i.g.) was 0.62 ± 0.11. Further, the “Reduction of colonic TPH expression in PI-IBS rats” value with TPH (median dose, 10 mg/kg, p<0.05) is recorded as around 22.8%. The “Pain threshold pressure, after treatment” value in the test with PI-IBS rats (5 mg/kg i.g. daily) is 32 ± 1.9 mmHg; in the test with PI-IBS rats (10 mg/kg i.g. daily), 33 ± 1.8 mmHg; in the test on PI-IBS rats (20 mg/kg i.g. daily), 35 ± 1.3 mmHg. For the same molecule, the “Pain threshold pressure, before treatment” value turned out to be 25 ± 1.9 mmHg with PI-IBS rats (5 mg/kg i.g. group), 25 ± 1.1 mmHg with PI-IBS rats (10 mg/kg i.g. group) and 24 ± 1.1 mmHg in the test on PI-IBS rats (20 mg/kg i.g. group). The “Protein level of cyclin B1” value in the test with cyclin B1 was “significantly decrease”. Also, the Apoptosis rate result in the test with QGP-1 cells is “concentration-dependently increases”. For the same molecule, the “Protein level of p21” value with p21 is recorded as “significantly increased”.

(Values after patent publication US20130210907A1, “METHOD FOR PREVENTING OR TREATING ENTEROCHROMAFFIN CELL HYPERPLASIA-RELATED DISEASES BY QUERCETIN ADMINISTRATION” (HONG KONG BAPTIST UNIVERSITY, priority 2012, published 2013).)
